Tests used:
Assay type in all cases: cell-based, Chinese Hamster
[1] = system: CHO-K1 cells; experiment: Adaptation of CHO-K1 cells into HyQ PF-CHO media with different disaccharides; conditions: 3.6 g/l sugar
Protocol: Viable cell density and culture viability were determined by Trypan blue dye exclusion method using Vi-Cell XR Cell Viability Analyzer (Beckman Coulter, Brea, CA) according to manufacturer's instructions. For biochemical and other cell culture parameter analyses, 1 ml of culture sample was centrifuged at 8000 g for 10 minutes to obtain clarified supernatant. […] At each passage during the adaptation process, viable cell density and culture viability before passage and after inoculation into fresh media were determined. […] Osmolality of these culture media were determined to be between 308 and 324 mOsm/kg, well within the range for optimal mammalian cell culture. The viable cell densities and culture viabilities of these cultures at the beginning and end of each passage over a period of 74 days are shown in FIG. 1. […] However, culture viabilities and viable cell densities of the maltose culture started to pick up on Day 14. Proliferation of the cells in maltose culture then maintained over the period of the time studied, while those in the other disaccharides were terminated on Day 31 due to the lack of cell growth and depressed culture viabilities.

[2] = system: CHO-DG44 cells; experiment: Disaccharides to support growth of CHO-DG44 cells in HyQ PF-CHO; conditions: 10 g/l sugar, 22 days
Text: In (A) CHO-K1 cells were cultivated in a serum-free protein-free cell culture medium, HyQ PF-CHO, with 3.6 g/l of different sugars (maltose, sucrose, lactose, trehalose or glucose) as carbohydrate source. The viable cell densities (lined markers) and culture viabilities (marker only) of these cultures at the beginning and end of each passage over a period of 74 days were plotted. Cultures with sucrose, lactose or trehalose were terminated on Day 31 due to the decreased culture viabilities and reduced viable cell densities. The experiment was repeated with a seeding cell density of 1.0×10^6 cells/ml to obtain similar results. In (B) CHO-DG44 cells were cultivated with a seeding cell density of 1.0×10^6 cells/ml in a serum-free protein-free cell culture medium, HyQ PF-CHO, with 10 g/l of different sugars (maltose, sucrose, lactose, trehalose or glucose) as carbohydrate source. The viable cell densities (lined markers) and cell viabilities (marker only) of these cultures at the beginning and end of each passage over a period of 22 days were plotted. In (C) HEK293 cells were cultivated with a seeding cell density of 1.0×10^6 cells/ml in a protein-free chemically defined cell culture medium, PFCDM, with 10 g/l of different sugars (maltose, sucrose, lactose, trehalose or glucose) as carbohydrate source. The viable cell densities (lined markers) and cell viabilities (marker only) of these cultures at the beginning and end of each passage over a period of 22 days were plotted. Cultures with sucrose, lactose or trehalose were terminated on Day 14 due to the decreased culture viabilities and reduced viable cell densities.
To determine whether the same approach can be applied on other CHO cell lines, the use of disaccharides to support the growth of CHO-DG44 cells was evaluated. These cells were cultivated with 10 g/l of maltose, sucrose, lactose, trehalose or glucose as energy source in a serum-free protein-free cell culture medium HyQ PF-CHO. The viable cell densities and culture viabilities of these cultures at the beginning and end of each passage over a period of 22 days are shown in FIG. 1B.

[3] = system: SH87 (CHO-K1 cell line producing an anti-Her2 monoclonal antibody); experiment: SH87 shake flask batch cultures in PFCDM with glucose and maltose; conditions: 20 g/l maltose supplemented vs 14 g/l glucose and 10 g/l maltose supplemented cultures
Protocol: Viable cell density and culture viability were determined by Trypan blue dye exclusion method using Vi-Cell XR Cell Viability Analyzer (Beckman Coulter, Brea, CA) according to manufacturer's instructions. For biochemical and other cell culture parameter analyses, 1 ml of culture sample was centrifuged at 8000 g for 10 minutes to obtain clarified supernatant. Concentrations of ammonium, glutamine, glucose and lactate were analyzed by the BioProfile 100 Plus (Nova Biomedical, Waltham, MA). Osmolality was measured using a vapor pressure osmometer (Vapro 5520, Wescor, Logan, UT), according to manufacturer's instructions. Maltose concentration was quantified using Maltose Colorimetric/Fluorometric Assay Kit (Biovision, Milpitas, CA), according to manufacturer's instructions. […] Cells were cultivated in single-use Erlenmeyer flasks (Corning), with a cell seeding density of 0.3×10^6 cells/ml in duplicates. Cell culture samples were collected and analyzed daily throughout the duration of the growth profile experiment until culture viabilities fell below 50%. When necessary, culture supernatant samples were stored at -20° C. for further analysis.

[4] = system: SH87 cells; experiment: SH87 fed-batch bioreactor cultures in PFCDM
Protocol: For each culture condition to be tested, SH87 was scaled up in PFCDM and inoculated into duplicate two (2) liter glass bioreactors (Sartorius, Germany) at a viable cell density of 3×10^5 cells/ml. Culture temperature, pH, dissolved oxygen and stir rate were maintained at 37° C., 7.1, 50% and 120 rpm respectively. The culture set points for glucose and glutamine were 0.5 g/l and 0.5 mM respectively, and predictive feeding was used to maintain these concentration levels by the addition of a concentrated DMEM-based protein-free feed and a 150 g/l glucose solution. Cell culture samples were collected and analyzed daily throughout the duration of the growth profile experiment until culture viabilities fell below 50%. When necessary, culture supernatant samples were stored at −20° C. for further analysis.
Since fed-batch culture is a popular mode for the manufacturing of monoclonal antibodies, the use of maltose in fed-batch cultures was evaluated. […] As such, it was evaluated whether maltose can be used to supplement glucose in fed-batch cultures to drive the cells towards a slower but more efficient metabolism: Using a common glucose concentration setpoint of 0.5 g/l, SH87 in media supplemented with 4 g/l glucose and 20 g/l maltose was fed daily with 50% of its calculated glucose requirement, while cultures of the same cells in media containing 4 g/l glucose was fed daily with 100% of its calculated glucose requirement. Duplicate bioreactor cultures were performed for each condition and the growth, biochemical and IgG titer profiles of these cultures were plotted in FIG. 7.
Additionally, the present disclosure investigated whether maltose supplementation in the feed medium can have further effect on fed-batch cultures with maltose-supplemented base medium. Using a common glucose concentration setpoint of 0.5 g/l, SH87 in media supplemented with 4 g/l glucose and 20 g/l maltose was fed daily with 50% of its calculated glucose requirement, using a sugar feed consisting of only glucose, or of glucose and maltose in a 1:1 ratio.

OC[C@H]1O[C@H](O[C@H]2[C@H](O)[C@@H](O)[C@H](O)O[C@@H]2CO)[C@H](O)[C@@H](O)[C@@H]1O [maltose]
day on which culture viabilities and viable cell densities started to pick up [1]: 14 days
proliferation in serum-free protein-free culture medium with the sugar as sugar source ([1]; seeding 0.3×10^6 cells/ml, 74 days): can proliferate
proliferation in serum-free protein-free culture medium with the sugar as sugar source [2]: can also proliferate
improvement in maximum IgG titer of batch culture [3]: 15%
effect of additional maltose in the feed medium on cell growth, viability, glutamine, osmolality and IgG titer profiles ([4]; base 4 g/l glucose + 20 g/l maltose, feed glucose and maltose 1:1 vs glucose only): no additional effect
improvement in maximum IgG titers vs glucose-only fed-batch cultures ([4]; fed-batch bioreactor): 23%
improvement in specific IgG productivities vs glucose-only fed-batch cultures ([4]; fed-batch bioreactor): 55%
